Measurements: ChEMBL document CHEMBL1147908, “Preparation of novel anthranilic acids as antibacterial agents. Extensive evaluation of alternative amide bioisosteres connecting the A- and the B-rings” (2007)
Converted amounts (≈) assume the structure as drawn.

Columns and labels:
Format in all cases: functional
Streptococcus pneumoniae = assay: Antibacterial activity against Streptococcus pneumoniae UC 9912
Enterococcus faecalis = assay: Antibacterial activity against Enterococcus faecalis UC 9217
Staphylococcus aureus = assay: Antibacterial activity against Staphylococcus aureus UC 9218
[1] = tested on: Staphylococcus epidermidis; assay: Antibacterial activity against Staphylococcus epidermidis UC 12084
Haemophilus influenzae = assay: Antibacterial activity against Haemophilus influenzae 30063

| Compound | MIC (Streptococcus pneumoniae) | MIC (Enterococcus faecalis) | MIC (Staphylococcus aureus) | MIC [1] | MIC (Haemophilus influenzae) |
| --- | --- | --- | --- | --- | --- |
| N#Cc1ccc(C=Cc2cccc(S(=O)(=O)N3CCc4cc(Cl)ccc43)c2)c(C(=O)O)c1 | 64 µg/mL (≈ 138 µM) | > 128 µg/mL | 16 µg/mL (≈ 34.4 µM) | 32 µg/mL (≈ 68.8 µM) | > 128 µg/mL |
| Cc1ccc(S(=O)(=O)Nc2ccc(-c3ccc(Cl)cc3)c(C(=O)O)c2)cc1 | > 128 µg/mL | > 128 µg/mL | > 128 µg/mL | 64 µg/mL (≈ 159 µM) | > 128 µg/mL |
| N#Cc1ccc(/C=C/c2cccc(S(=O)(=O)N3CCc4cc(Cl)ccc43)c2)c(C(=O)O)c1 | > 128 µg/mL | 128 µg/mL (≈ 275 µM) | 0.25 µg/mL (≈ 0.538 µM) | 0.5 µg/mL (≈ 1.08 µM) | > 128 µg/mL |
| O=C(O)c1cc(Br)ccc1-c1nnc(-c2ccccc2)o1 | > 128 µg/mL | > 128 µg/mL | > 128 µg/mL | > 128 µg/mL | > 128 µg/mL |
| O=C(O)c1cc(Br)ccc1-c1nnc(-c2ccccc2)[nH]1 | > 128 µg/mL | > 128 µg/mL | > 128 µg/mL | > 128 µg/mL | > 128 µg/mL |
| N#Cc1ccc([C@H]2C[C@@H]2c2cccc(S(=O)(=O)N3CCc4cc(Cl)ccc43)c2)c(C(=O)O)c1 | > 128 µg/mL | > 128 µg/mL | 4 µg/mL (≈ 8.35 µM) | 8 µg/mL (≈ 16.7 µM) | 16 µg/mL (≈ 33.4 µM) |
| N#Cc1ccc(NC(=S)c2cccc(S(=O)(=O)N3CCc4cc(Cl)ccc43)c2)c(C(=O)O)c1 | 16 µg/mL (≈ 32.1 µM) | 32 µg/mL (≈ 64.3 µM) | 0.125 µg/mL (≈ 0.251 µM) | 0.125 µg/mL (≈ 0.251 µM) | 64 µg/mL (≈ 129 µM) |

Further lines, results first:

| MIC (Streptococcus pneumoniae) | MIC (Enterococcus faecalis) | MIC (Staphylococcus aureus) | MIC [1] | MIC (Haemophilus influenzae) | Compound |
| --- | --- | --- | --- | --- | --- |
| > 128 µg/mL | > 128 µg/mL | 128 µg/mL (≈ 286 µM) | 128 µg/mL (≈ 286 µM) | > 128 µg/mL | O=C(O)c1cc(Cl)ccc1-c1ccc(S(=O)(=O)N2CCc3cc(Cl)ccc32)cc1 |
| 4 µg/mL (≈ 7.47 µM) | 32 µg/mL (≈ 59.7 µM) | 0.5 µg/mL (≈ 0.933 µM) | 4 µg/mL (≈ 7.47 µM) | 128 µg/mL (≈ 239 µM) | O=C(Nc1ccc(Br)cc1C(=O)O)c1ccc(S(=O)(=O)N2CCc3cc(Cl)ccc32)cc1 |
| 32 µg/mL (≈ 67.2 µM) | > 128 µg/mL | 32 µg/mL (≈ 67.2 µM) | 32 µg/mL (≈ 67.2 µM) | > 128 µg/mL | O=C(O)c1cc(Cl)ccc1CCc1ccc(S(=O)(=O)N2CCc3cc(Cl)ccc32)cc1 |
